How the values were obtained:
[1] = tested on: larvae of the mustard beetle (Phaedon cochleariae); experiment: Phaedon larvae test (spray treatment); settings: sprayed Chinese cabbage leaf disks
[2] = tested on: larvae of the army worm (Spodoptera frugiperda); experiment: Spodoptera frugiperda test (spray treatment); type: in vivo; settings: 500 g/ha, sprayed maize leaf disks
Source text: Spodoptera frugiperda Test (Spray Treatment)

[3] = tested on: eggs of the cotton bollworm (Heliothis virescens); experiment: Heliothis virescens egg test (spray treatment); type: in vivo; settings: 500 g/ha, sprayed soybean leaves, 100% = none of the larvae hatched
Source text: Heliothis virescens Egg Test (Spray Treatment)

[4] = tested on: larvae of the cabbage moth (Plutella xylostella); experiment: Plutella test; type: in vivo; settings: for Kill rate in % after 7^d: 100 PPM, dipped cabbage leaves; for efficacy (in words): Plutella test
Source text: Solvent: 7 parts by weight of dimethylformamide
Emulsifier: 1 part by weight of alkylaryl polyglycol ether

Meloidogyne incognita = experiment: Meloidogyne test (spray treatment); type: in vivo; settings: 20 g/ha, nematicidal effect from formation of galls on lettuce roots
Procedure: Meloidogyne Test (Spray Treatment)
Solvent: 80 parts by weight of acetone
Containers are filled with sand, solution of active compound, Meloidogyne incognita egg/larvae suspension, and lettuce seeds. The lettuce seeds germinate and the plants develop. On the roots, galls are formed.
After the desired time, the nematicidal effect is determined in % from the formation of galls. 100% here means that no galls were found; 0% means that the number of galls on the treated plants corresponds to that in the untreated control.

[5] = tested on: greenhouse red spider mite (Tetranychus urticae); experiment: Tetranychus test (OP-resistant/spray treatment); type: in vivo
Source text: Tetranychus Test (OP-Resistant/Spray Treatment)
Disks of bean leaves (Phaseolus vulgaris) which are infested by all stages of the greenhouse red spider mite (Tetranychus urticae) are sprayed with an active compound preparation in the desired concentration.

Structure (SMILES) | Kill rate in % after 7^d ([1]; 500 g/ha) | Kill rate in % after 7^d [2] | Kill rate in % after 7^d [3] | further results
COc1cc(C2C3=C(COC3=O)Nc3cc4c(cc32)OCO4)ccc1Cl (stereo not shown) [Example 139] | 83% | 100% |  | 
COc1cc(OC)cc(C2C3=C(COC3=O)Nc3c2ccc(OC)c3OC)c1 (stereo not shown) [Example 90] | 100% | 100% |  | 
COc1cc(OC)cc(C2C3=C(COC3=O)Nc3cc(OC)c(C)cc32)c1 (stereo not shown) [Example 93] | 100% | 100% |  | 
O=C1OCC2=C1C(c1cc(Br)cc(Br)c1)c1cc3c(cc1N2)OCO3 (stereo not shown) [Example 123] |  | 100% | 95% | 
COc1cc(OC)cc(C2C3=C(COC3=O)Nc3cc(OC)ccc32)c1 (stereo not shown) [Example 161] | 100% | 100% | 100% | 
O=C1OCC2=C1C(c1ccc(F)c(Br)c1)c1cc3c(cc1N2)OCO3 (stereo not shown) [Example 129] |  | 100% | 100% | 
O=C1OCC2=C1C(c1cccc(OCCO)c1)c1cc3c(cc1N2)OCO3 (stereo not shown) [Example 158] |  | 100% |  | 
O=C1OCC2=C1C(c1cncc(Br)c1)c1cc3c(cc1N2)OCO3 (stereo not shown) [Example 116] |  | 100% |  | 
COc1cc(OC)cc(C2C3=C(CCC3=O)Nc3cc4c(cc32)OCO4)c1 (stereo not shown) [Example 56] | 100% | 100% | 80% | 
COc1cc(OC)cc(C2C3=C(COC3=O)Nc3ccc(OC)cc32)c1 (stereo not shown) [Example 162] |  |  | 100% | 
CC1CC2=C(C(=O)O1)C(c1cccc(Cl)c1)c1cc3c(cc1N2)OCO3 (stereo not shown) [Example 35] | 100% | 100% |  | 
COc1cc(OC)cc(C2C3=C(COC3=O)Nc3cc4c(cc32)OCCCO4)c1 (stereo not shown) [Example 75] | 100% | 100% |  | 
CC1(C)CC(=O)C2=C(C1)Nc1cc3c(cc1C2c1cccc(Cl)c1)OCO3 (stereo not shown) [Example 31] |  |  | 83% | 
COc1cc(C2C3=C(COC3=O)Nc3cc4c(cc32)OCO4)cc(O)c1OC (stereo not shown) [Example 130] | 100% |  |  | 
COc1cc(OC)cc(C2C3=C(COC3=O)Nc3cc4c(cc32)OCCO4)c1 (stereo not shown) [Example 74] |  | 100% |  | 
CN1OC(C)(C)C2=C(C1=O)C(c1cccc(Cl)c1)c1cc3c(cc1N2)OCO3 (stereo not shown) [Example 36] |  |  | 80% | 
O=C1OCC2=C1C(c1cccc(OCc3ccc(Cl)cc3)c1)c1cc3c(cc1N2)OCO3 (stereo not shown) [Example 149] |  |  | 85% | 
O=C1OCC2=C1C(c1cc(F)c(F)c(F)c1)c1cc3c(cc1N2)OCO3 (stereo not shown) [Example 153] |  | 100% |  | 
CCOc1cc2c(cc1C)C(c1cc(OC)cc(OC)c1)C1=C(COC1=O)N2 (stereo not shown) [Example 99] | 83% |  |  | 
COc1cc(OC)cc(C2C3=C(Nc4cc5c(cc42)OCO5)C(C)OC3=O)c1 (stereo not shown) [Example 45] | 100% | 100% | 98% | 

Structure (SMILES) | Kill rate in % after 7^d ([1]; 500 g/ha) | Kill rate in % after 7^d [2] | Kill rate in % after 7^d [3] | further results
COc1cc(OC)cc(C2C3=C(COC3=O)Nc3cc(SC)ccc32)c1 (stereo not shown) [Example 84] |  | 100% |  | 
COc1cc(OC)c(C2C3=C(COC3=O)Nc3cc4c(cc32)OCO4)cn1 (stereo not shown) [Example 150] |  |  | 100% | 
COc1ccc(C2C3=C(COC3=O)Nc3cc4c(cc32)OCO4)cn1 (stereo not shown) [Example 142] | 100% | 100% |  | 
COc1cc(C2C3=C(COC3=O)Nc3cc4c(cc32)OCO4)cc(Br)c1OC (stereo not shown) [Example 114] | 83% |  |  | 
COc1cc(C2C3=C(COC3=O)N(C)c3cc4c(cc32)OCO4)cc(OC)c1OC (stereo not shown) [Example 69] | 100% |  |  | 
COc1cccc(C2C3=C(COC3=O)Nc3cc4c(cc32)OCO4)c1 (stereo not shown) [Example 1, 6,7-(methylenedioxy)-9-(3-methoxyphenyl)-4,9-dihydro-3H-furo[3,4-b]quinolin-1-one] |  | 100% |  | 
O=C1OCC2=C1C(c1cccc(OC(F)(F)C(F)F)c1)c1cc3c(cc1N2)OCO3 (stereo not shown) [Example 157] | 100% | 100% |  | 
Cc1cccc(C2C3=C(COC3=O)Nc3cc4c(cc32)OCO4)c1 (stereo not shown) [Example 19] |  | 100% |  | 
O=C1OCC2=C1C(c1cc(F)cc(F)c1)c1cc3c(cc1N2)OCO3 (stereo not shown) [Example 16] |  | 100% | 97% | 
O=C1OCC2=C1C(c1ccc(F)c(Cl)c1)c1cc3c(cc1N2)OCO3 (stereo not shown) [Example 140] |  | 100% |  | 
O=C1OCC2=C1C(c1cc(Cl)cc(Cl)c1)c1cc3c(cc1N2)OCO3 (stereo not shown) [Example 12] | 100% |  | 100% | 
O=C1OCC2=C1C(c1ccccc1)c1cc3c(cc1N2)OCO3 (stereo not shown) [Example 17] |  | 100% |  | 
COc1ccc2c(c1)NC1=C(C(=O)OC1)C2c1cc(OC)c(OC)c(OC)c1 (stereo not shown) [Example 9] |  | 100% |  | Kill rate in % after 7^d [4]: 90%; efficacy (in words) [4]: high efficacy
COc1cc(C2C3=C(COC3=O)Nc3cc4c(cc32)OCO4)cc2c1OCO2 (stereo not shown) [Example 133] | 100% | 83% | 95% | 
COc1ccc(C2C3=C(CN(c4ccccc4)C3=O)Nc3cc4c(cc32)OCO4)cc1 (stereo not shown) |  |  |  | Kill rate in % after 14^d (Meloidogyne incognita): 70%
O=C1OCC2=C1C(c1cccc(F)c1)c1cc3c(cc1N2)OCO3 (stereo not shown) [Example 20] | 83% |  | 96% | 
Clc1cccc(C2C3=C(CCC3)Nc3cc4c(cc32)OCO4)c1 (stereo not shown) [Example 30] |  |  |  | Kill rate in % after 7^d ([5]; 500 g/ha, after 7 d, sprayed bean leaf disks, all stages): 70%; efficacy (in words) ([5]; Tetranychus test): high efficacy
O=C1OCC2=C1C(c1cc(Br)c3c(c1)OCO3)c1cc3c(cc1N2)OCO3 (stereo not shown) [Example 145] | 83% | 100% |  | 
COc1c(Cl)cc(C2C3=C(COC3=O)Nc3cc4c(cc32)OCO4)cc1Cl (stereo not shown) [Example 128] | 100% | 83% |  | 
COc1cc2c(cc1OC)C(c1ccc3c(c1)OCO3)C1=C(COC1=O)N2 (stereo not shown) [Example 72] |  |  |  | Kill rate in % after 14^d (Meloidogyne incognita): 100%

Structure (SMILES) | Kill rate in % after 7^d ([1]; 500 g/ha) | Kill rate in % after 7^d [2] | Kill rate in % after 7^d [3] | further results
CCN1CC2=C(C1=O)C(c1ccc(OC)cc1)c1cc3c(cc1N2)OCO3 (stereo not shown) |  |  |  | Kill rate in % after 14^d (Meloidogyne incognita): 70%
COc1cc(C2C3=C(COC3=O)Nc3cc4c(cc32)OCO4)ccc1F (stereo not shown) [Example 148] |  | 100% |  | 
COc1cc(OC)cc(C2C3=C(COC3=O)Nc3cc(OC)cc(OC)c32)c1 (stereo not shown) [Example 100] |  | 100% |  | Kill rate in % after 7^d ([1]; 100 g/ha): 83%
O=C1OCC2=C1C(c1cccc(Cl)c1)c1cc3c(cc1N2)OCO3 (stereo not shown) [Example 6] |  | 100% | 98% | Kill rate in % after 7^d [4]: 100%; efficacy (in words) [4]: high efficacy
COc1cc2c(cc1OC)C(c1ccc3c(c1)OC(F)(F)O3)C1=C(COC1=O)N2 (stereo not shown) [Example 68] |  |  |  | Kill rate in % after 14^d (Meloidogyne incognita): 80%
CCOc1cccc(C2C3=C(COC3=O)Nc3cc4c(cc32)OCO4)c1 (stereo not shown) [Example 111] |  | 100% |  | 
O=C1OCC2=C1C(c1cccc(Br)c1)c1cc3c(cc1N2)OCO3 (stereo not shown) [Example 18] | 100% |  | 98% | 
COc1cc(C2C3=C(COC3=O)Nc3cc4c(cc32)OC(F)(F)O4)cc(OC)c1OC (stereo not shown) [Example 70] | 100% |  |  | 
COc1cc(C2C3=C(COC3=O)Nc3cc4c(cc32)OCO4)cc(OC)c1OC (stereo not shown) [Example 61] | 100% |  |  | 
COc1cc(OC)cc(C2C3=C(COC3=O)Nc3ccc(OC)cc32)c1 (stereo not shown) [Example 86] | 100% | 100% |  | 
CCOc1cccc(C2C3=C(COC3=O)Nc3cc(OCC)ccc32)c1 (stereo not shown) [Example 103] | 100% | 100% |  | 
COc1cc(OC)cc(C2(C)C3=C(COC3=O)Nc3cc4c(cc32)OCO4)c1 (stereo not shown) [Example 107] |  |  | 90% | 
COc1cc(OC)cc(C2C3=C(COC3=O)Nc3cc(OC)c(OC)cc32)c1 (stereo not shown) [Example 73] | 83% | 83% |  | 
N#CCOc1cccc(C2C3=C(COC3=O)Nc3cc4c(cc32)OCO4)c1 (stereo not shown) [Example 136] | 83% | 100% |  | 
Cc1cc(C)cc(C2C3=C(COC3=O)Nc3cc4c(cc32)OCO4)c1 (stereo not shown) [Example 23] |  | 100% | 98% | 
COc1cc2c(c(C3C4=C(COC4=O)Nc4cc5c(cc43)OCO5)c1)OCO2 (stereo not shown) [Example 155] | 100% |  |  | 
O=C1OCC2=C1C(c1cc(C(F)(F)F)cc(Cl)c1F)c1cc3c(cc1N2)OCO3 (stereo not shown) [Example 113] | 100% |  | 95% | 
COc1ccc2c(c1)C(c1cc(OC)c(OC)c(OC)c1)C1=C(COC1=O)N2 (stereo not shown) [Example 8, 7-methoxy-9-(3,4,5-trimethoxyphenyl)-4,9-dihydro-3H-furo[3,4-b]quinolin-1-one] | 100% |  |  | 

Reference: US20080113994A1, “Annelated Quinoline Derivatives As Pesticide” (priority 2004, published 2008)
